Data from paper PMC7692329, “Inhibitory Effect of AB-PINACA, Indazole Carboxamide Synthetic Cannabinoid, on Human Major Drug-Metabolizing Enzymes and Transporters” (Pharmaceutics, 2020).
Read-outs that look alike come from different tables or passages of the source.

Experiments:
OCT1 = target: T1, OCT1 (Homo sapiens, UniProt O15245); test: OCT1-mediated methyl-4-phenylpyridinium uptake in HEK293-OCT1 cells; type: in vitro ADME
T1 construct: host or cells: HEK293
T1 sequence (O15245 1-554): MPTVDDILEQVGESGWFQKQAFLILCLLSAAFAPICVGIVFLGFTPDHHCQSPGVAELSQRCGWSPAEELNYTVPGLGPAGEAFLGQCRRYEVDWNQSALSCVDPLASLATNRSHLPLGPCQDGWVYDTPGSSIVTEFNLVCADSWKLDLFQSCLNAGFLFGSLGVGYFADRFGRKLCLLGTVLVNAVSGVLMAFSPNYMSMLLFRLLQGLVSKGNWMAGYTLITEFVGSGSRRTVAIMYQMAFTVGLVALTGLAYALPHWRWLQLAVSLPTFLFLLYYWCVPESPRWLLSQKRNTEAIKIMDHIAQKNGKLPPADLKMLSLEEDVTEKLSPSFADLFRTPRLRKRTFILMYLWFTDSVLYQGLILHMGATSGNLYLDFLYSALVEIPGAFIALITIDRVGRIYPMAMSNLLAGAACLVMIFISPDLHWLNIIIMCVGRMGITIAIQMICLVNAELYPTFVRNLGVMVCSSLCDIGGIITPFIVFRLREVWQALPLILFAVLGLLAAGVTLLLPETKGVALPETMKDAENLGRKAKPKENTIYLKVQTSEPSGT

OCT2 = target: T2, OCT2 (Homo sapiens, UniProt O15244); test: OCT2-mediated methyl-4-phenylpyridinium uptake in HEK293-OCT2 cells; type: in vitro ADME
T2 construct: host or cells: HEK293

OAT1 = target: T3, OAT1 (Homo sapiens, UniProt Q4U2R8); test: OAT1-mediated para-aminohippuric acid uptake in HEK293-OAT1 cells; type: in vitro ADME
T3 construct: host or cells: HEK293

OATP1B1 = target: T4, OATP1B1 (Homo sapiens, UniProt Q9Y6L6); test: OATP1B1-mediated estrone-3-sulfate uptake in HEK293-OATP1B1 cells; type: in vitro ADME
T4 construct: host or cells: HEK293

OATP1B3 = target: T5, OATP1B3 (Homo sapiens, UniProt Q9NPD5); test: OATP1B3-mediated estradiol-17β-D-glucuronide uptake in HEK293-OATP1B3 cells; type: in vitro ADME
T5 construct: host or cells: HEK293

P-gp = target: T6, P-gp (Homo sapiens, UniProt P08183); test: P-gp-mediated B to A transport of digoxin in LLC-PK1-MDR1 cells; type: in vitro ADME
T6 construct: host or cells: LLC-PK1

[1] = test system: human cannabinoid receptor type 1 (hCB1); conditions: cited from earlier work
[2] = design: method as in PMID 26105953; conditions: cited from earlier work
CYP2B6 = CYP2B6 (Homo sapiens, UniProt P20813); test: CYP2B6 bupropion hydroxylase inhibition in ultrapooled human liver microsomes
UGT1A1 = UGT1A1 (Homo sapiens, UniProt P22309); test: UGT1A1 SN-38 glucuronidation inhibition in ultrapooled human liver microsomes
CYP2A6 = CYP2A6 (Homo sapiens, UniProt P11509); test: CYP2A6 coumarin 7-hydroxylase inhibition in ultrapooled human liver microsomes
CYP1A2 = CYP1A2 (Homo sapiens, UniProt P05177); test: CYP1A2 phenacetin O-deethylase inhibition in ultrapooled human liver microsomes
CYP2C8 = target: T7, CYP2C8 (Homo sapiens, UniProt P10632); test: CYP2C8 amodiaquine N-deethylase inhibition in ultrapooled human liver microsomes; conditions: for IC50: CYP2C8 amodiaquine N-deethylase, ultrapooled human liver microsomes
T7 sequence (P10632 1-490): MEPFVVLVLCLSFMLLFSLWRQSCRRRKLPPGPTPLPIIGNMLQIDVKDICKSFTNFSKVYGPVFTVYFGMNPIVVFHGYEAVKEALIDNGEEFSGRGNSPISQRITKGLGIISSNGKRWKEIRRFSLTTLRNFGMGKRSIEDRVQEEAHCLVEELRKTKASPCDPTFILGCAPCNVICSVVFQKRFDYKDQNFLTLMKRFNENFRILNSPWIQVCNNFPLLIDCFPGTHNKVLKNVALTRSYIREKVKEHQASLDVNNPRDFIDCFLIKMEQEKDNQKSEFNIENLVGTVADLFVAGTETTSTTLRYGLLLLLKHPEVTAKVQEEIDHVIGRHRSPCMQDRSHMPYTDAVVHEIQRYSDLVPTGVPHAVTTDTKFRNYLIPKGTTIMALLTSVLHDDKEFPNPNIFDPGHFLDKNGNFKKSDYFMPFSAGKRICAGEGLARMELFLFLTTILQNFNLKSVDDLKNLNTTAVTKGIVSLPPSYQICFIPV

CYP2D6 = CYP2D6 (Homo sapiens, UniProt P10635); test: CYP2D6 bufuralol 1'-hydroxylase inhibition in ultrapooled human liver microsomes
CYP2C9 = CYP2C9 (Homo sapiens, UniProt P11712); test: CYP2C9 diclofenac 4'-hydroxylase inhibition in ultrapooled human liver microsomes; conditions: for IC50: CYP2C9 diclofenac 4'-hydroxylase, ultrapooled human liver microsomes
CYP2C19 = CYP2C19 (Homo sapiens, UniProt P33261); test: CYP2C19 [S]-mephenytoin 4'-hydroxylase inhibition in ultrapooled human liver microsomes; conditions: for IC50: CYP2C19 [S]-mephenytoin 4'-hydroxylase, ultrapooled human liver microsomes
UGT1A4 = UGT1A4 (Homo sapiens, UniProt P22310); test: UGT1A4 trifluoperazine N-glucuronidation inhibition in ultrapooled human liver microsomes
UGT1A6 = UGT1A6 (Homo sapiens, UniProt P19224); test: UGT1A6 N-acetylserotonin glucuronidation inhibition in ultrapooled human liver microsomes
UGT1A9 = UGT1A9 (Homo sapiens, UniProt O60656); test: UGT1A9 mycophenolic acid glucuronidation inhibition in ultrapooled human liver microsomes
UGT1A3 = UGT1A3 (Homo sapiens, UniProt P35503); test: UGT1A3 chenodeoxycholic acid 24-acyl-β-glucuronidation inhibition in ultrapooled human liver microsomes
[3] = IC50 With NADPH Preincubation, 30-min preincubation with NADPH
[4] = IC50 Without NADPH Preincubation, without NADPH preincubation

CYP2C9, sequence (P11712 whole entry): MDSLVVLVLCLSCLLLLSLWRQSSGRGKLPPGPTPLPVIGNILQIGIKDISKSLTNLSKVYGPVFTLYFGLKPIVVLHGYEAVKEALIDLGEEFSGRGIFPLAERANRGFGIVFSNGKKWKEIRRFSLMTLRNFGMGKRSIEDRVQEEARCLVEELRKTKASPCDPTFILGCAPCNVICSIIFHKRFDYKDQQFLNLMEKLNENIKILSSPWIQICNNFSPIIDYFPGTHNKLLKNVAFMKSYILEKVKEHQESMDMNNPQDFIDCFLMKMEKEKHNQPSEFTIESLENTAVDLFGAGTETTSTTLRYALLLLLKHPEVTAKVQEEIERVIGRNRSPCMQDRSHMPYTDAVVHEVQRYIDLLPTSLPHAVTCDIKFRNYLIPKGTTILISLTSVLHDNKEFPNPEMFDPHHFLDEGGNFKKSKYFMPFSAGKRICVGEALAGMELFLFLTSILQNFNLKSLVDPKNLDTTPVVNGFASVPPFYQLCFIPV
CYP2C19, sequence (P33261 whole entry): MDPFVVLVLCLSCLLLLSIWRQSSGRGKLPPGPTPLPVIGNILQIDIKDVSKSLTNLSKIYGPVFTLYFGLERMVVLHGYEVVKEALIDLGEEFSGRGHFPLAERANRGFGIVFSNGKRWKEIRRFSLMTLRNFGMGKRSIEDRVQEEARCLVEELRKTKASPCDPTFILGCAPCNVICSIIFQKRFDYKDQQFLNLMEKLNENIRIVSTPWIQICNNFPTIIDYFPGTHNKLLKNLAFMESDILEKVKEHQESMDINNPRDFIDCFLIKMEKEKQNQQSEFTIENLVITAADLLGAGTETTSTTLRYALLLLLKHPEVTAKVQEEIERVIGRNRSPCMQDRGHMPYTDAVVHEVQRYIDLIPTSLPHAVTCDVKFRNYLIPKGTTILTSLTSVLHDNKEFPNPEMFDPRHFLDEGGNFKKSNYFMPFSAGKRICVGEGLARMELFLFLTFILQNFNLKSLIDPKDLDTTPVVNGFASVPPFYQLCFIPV
CYP2D6, sequence (P10635 whole entry): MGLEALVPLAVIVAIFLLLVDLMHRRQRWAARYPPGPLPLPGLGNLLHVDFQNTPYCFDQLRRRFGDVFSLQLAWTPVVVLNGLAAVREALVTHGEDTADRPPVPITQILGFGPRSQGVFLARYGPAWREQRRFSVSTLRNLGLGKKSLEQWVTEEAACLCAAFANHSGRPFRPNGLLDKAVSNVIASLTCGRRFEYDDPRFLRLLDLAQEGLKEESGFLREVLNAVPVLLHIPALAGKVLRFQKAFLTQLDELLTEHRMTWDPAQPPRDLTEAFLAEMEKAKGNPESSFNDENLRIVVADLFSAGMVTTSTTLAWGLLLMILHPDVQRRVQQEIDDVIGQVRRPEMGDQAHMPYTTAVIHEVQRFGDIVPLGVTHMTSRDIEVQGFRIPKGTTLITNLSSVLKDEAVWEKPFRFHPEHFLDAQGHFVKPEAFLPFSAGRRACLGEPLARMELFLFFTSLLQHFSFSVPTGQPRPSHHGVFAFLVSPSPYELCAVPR
CYP1A2, sequence (P05177 whole entry): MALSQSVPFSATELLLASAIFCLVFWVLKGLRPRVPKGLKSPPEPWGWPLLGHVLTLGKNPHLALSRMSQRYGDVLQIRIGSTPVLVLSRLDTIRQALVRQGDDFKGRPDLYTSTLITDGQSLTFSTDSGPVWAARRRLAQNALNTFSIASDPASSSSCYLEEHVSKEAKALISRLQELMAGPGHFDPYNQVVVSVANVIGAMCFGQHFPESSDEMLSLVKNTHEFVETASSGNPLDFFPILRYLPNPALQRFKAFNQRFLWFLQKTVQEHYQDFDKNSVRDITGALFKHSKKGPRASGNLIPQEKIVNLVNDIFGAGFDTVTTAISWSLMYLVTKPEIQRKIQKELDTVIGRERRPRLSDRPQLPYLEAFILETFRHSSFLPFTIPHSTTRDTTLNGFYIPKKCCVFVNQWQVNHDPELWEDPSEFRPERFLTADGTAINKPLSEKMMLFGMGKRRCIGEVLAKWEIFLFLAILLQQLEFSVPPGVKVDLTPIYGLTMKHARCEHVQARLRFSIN
CYP2B6, sequence (P20813 whole entry): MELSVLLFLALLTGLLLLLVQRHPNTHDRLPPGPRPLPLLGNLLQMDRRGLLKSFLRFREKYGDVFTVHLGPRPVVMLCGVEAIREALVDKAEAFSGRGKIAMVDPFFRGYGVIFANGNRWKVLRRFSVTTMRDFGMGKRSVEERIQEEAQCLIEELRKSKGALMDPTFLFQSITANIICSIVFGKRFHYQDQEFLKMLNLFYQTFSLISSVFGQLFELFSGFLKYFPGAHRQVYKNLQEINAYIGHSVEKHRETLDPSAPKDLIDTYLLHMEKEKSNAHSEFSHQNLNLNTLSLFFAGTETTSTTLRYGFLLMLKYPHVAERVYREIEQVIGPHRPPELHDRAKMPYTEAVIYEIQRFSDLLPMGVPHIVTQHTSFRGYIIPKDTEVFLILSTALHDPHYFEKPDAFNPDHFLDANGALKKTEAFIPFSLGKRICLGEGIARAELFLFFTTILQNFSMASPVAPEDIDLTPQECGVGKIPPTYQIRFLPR
CYP2A6, sequence (P11509 whole entry): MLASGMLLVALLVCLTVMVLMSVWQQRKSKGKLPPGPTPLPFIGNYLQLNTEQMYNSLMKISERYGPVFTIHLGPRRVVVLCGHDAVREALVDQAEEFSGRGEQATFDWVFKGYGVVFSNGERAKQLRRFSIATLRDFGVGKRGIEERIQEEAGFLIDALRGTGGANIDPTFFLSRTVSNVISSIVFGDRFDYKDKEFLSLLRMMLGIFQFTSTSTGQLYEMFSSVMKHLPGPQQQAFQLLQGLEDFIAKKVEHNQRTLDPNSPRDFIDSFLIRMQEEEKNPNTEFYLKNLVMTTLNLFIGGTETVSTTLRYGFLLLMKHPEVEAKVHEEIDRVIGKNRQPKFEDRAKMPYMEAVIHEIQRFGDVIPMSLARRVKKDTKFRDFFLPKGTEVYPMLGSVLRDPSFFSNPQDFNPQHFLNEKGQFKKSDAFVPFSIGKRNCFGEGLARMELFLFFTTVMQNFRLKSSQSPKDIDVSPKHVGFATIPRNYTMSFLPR
UGT1A3, sequence (P35503 29-534): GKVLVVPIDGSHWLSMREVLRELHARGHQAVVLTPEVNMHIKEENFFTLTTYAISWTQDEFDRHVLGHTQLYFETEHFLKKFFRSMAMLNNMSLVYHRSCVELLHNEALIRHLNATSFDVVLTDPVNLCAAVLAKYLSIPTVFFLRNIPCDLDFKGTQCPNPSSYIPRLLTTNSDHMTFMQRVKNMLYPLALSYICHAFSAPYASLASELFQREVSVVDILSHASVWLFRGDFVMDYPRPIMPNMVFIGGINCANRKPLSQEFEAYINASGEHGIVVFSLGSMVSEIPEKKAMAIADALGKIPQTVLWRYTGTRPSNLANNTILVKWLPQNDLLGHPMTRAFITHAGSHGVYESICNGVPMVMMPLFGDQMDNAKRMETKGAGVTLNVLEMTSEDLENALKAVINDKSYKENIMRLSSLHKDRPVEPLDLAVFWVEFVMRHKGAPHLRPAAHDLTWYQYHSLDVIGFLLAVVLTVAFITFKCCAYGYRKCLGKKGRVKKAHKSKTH
UGT1A6, sequence (P19224 27-532): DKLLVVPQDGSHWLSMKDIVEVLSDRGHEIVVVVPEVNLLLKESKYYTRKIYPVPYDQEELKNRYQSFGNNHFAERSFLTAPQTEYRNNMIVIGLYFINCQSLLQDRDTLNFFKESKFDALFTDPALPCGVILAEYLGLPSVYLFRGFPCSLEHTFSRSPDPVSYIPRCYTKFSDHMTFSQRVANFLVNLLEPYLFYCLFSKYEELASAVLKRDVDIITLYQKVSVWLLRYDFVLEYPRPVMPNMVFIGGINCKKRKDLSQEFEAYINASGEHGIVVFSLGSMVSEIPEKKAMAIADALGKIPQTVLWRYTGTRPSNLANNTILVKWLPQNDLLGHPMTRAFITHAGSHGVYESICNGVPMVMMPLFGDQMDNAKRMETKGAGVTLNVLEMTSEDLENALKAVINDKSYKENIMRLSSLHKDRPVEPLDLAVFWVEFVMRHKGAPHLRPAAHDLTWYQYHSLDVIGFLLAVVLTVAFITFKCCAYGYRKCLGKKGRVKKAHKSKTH
UGT1A4, sequence (P22310 29-534): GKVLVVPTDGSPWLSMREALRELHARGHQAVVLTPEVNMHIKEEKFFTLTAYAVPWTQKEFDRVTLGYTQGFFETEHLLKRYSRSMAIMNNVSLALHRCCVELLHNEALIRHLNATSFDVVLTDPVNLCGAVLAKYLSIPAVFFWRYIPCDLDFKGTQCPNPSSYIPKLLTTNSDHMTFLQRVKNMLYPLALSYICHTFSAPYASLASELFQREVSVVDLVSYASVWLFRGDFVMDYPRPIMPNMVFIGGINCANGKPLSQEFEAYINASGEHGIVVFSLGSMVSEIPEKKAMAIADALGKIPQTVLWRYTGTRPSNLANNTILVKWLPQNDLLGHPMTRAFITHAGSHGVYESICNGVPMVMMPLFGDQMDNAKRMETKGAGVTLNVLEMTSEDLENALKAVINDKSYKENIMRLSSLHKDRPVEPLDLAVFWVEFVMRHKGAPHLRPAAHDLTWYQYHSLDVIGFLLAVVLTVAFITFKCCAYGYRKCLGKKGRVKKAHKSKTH

## CCCCCn1nc(C(=O)N[C@H](C(N)=O)C(C)C)c2ccccc21 [AB-PINACA, N-[(2S)-1-amino-3-methyl-1-oxobutan-2-yl]-1-pentyl-1H-indazole-3-carboxamide]
OCT1
  IC50: 136 µM
  Ki: 146 µM
OCT1; methyl-4-phenylpyridinium uptake, HEK293-OCT1 cells
  Mode of Inhibition, OCT1: mixed mode of inhibition
OCT2
  IC50: > 250 µM
OAT1
  IC50: > 250 µM
OATP1B1
  IC50: > 250 µM
OATP1B3
  IC50: > 250 µM
P-gp
  IC50: > 100 µM
[1]
  fold higher in vitro binding affinity to hCB1 compared with Δ9-THC: 23.3 fold
[1]; read-out: receptor binding affinity to hCB1 (Ki)
  Ki: 0.00287 µM
[2]
  substitution for Δ9-THC: substituted fully and dose dependently
CYP2B6
  IC50: > 100 µM
CYP2B6; read-out: IC50 With NADPH Preincubation, CYP2B6 bupropion hydroxylase, ultrapooled human liver microsomes, 30-min preincubation with NADPH
  IC50: > 100 µM
UGT1A1
  IC50: > 100 µM
CYP2A6
  IC50: > 100 µM
CYP2A6; read-out: IC50 Without NADPH Preincubation, CYP2A6 coumarin 7-hydroxylase, ultrapooled human liver microsomes, without NADPH preincubation
  IC50: > 100 µM
CYP1A2
  IC50: > 100 µM
CYP1A2; read-out: IC50 With NADPH Preincubation, CYP1A2 phenacetin O-deethylase, ultrapooled human liver microsomes, 30-min preincubation with NADPH
  IC50: > 100 µM
CYP2C8
  Ki: 16.9 µM
CYP2C8; [3]
  IC50: 30.1 µM
CYP2C8; [4]
  IC50: 32.5 µM
CYP2C8; amodiaquine N-deethylation, human liver microsomes
  Mode of Inhibition, CYP2C8: mixed mode of inhibition
CYP2C8; human, liver microsomes, pH 7.4, probe amodiaquine
  IC50 shift at 15 min: 1.1
CYP2D6
  IC50: > 100 µM
CYP2D6; read-out: IC50 With NADPH Preincubation, CYP2D6 bufuralol 1'-hydroxylase, ultrapooled human liver microsomes, 30-min preincubation with NADPH
  IC50: > 100 µM
CYP2C9; [3]
  IC50: 19.3 µM
CYP2C9; [4]
  IC50: 17.4 µM
CYP2C9; Ki, CYP2C9, diclofenac 4'-hydroxylation, human liver microsomes, Lineweaver–Burk and Dixon plots
  Ki: 16.1 µM
CYP2C9; human, liver microsomes, pH 7.4, probe diclofenac
  IC50 shift at 15 min: 0.9
CYP2C19; [3]
  IC50: 23 µM
CYP2C19; [4]
  IC50: 20 µM
CYP2C19; Ki, CYP2C19, [S]-mephenytoin 4'-hydroxylation, human liver microsomes, Lineweaver–Burk and Dixon plots
  Ki: 6.7 µM
CYP2C19; human, liver microsomes, pH 7.4, probe [S]-mephenytoin
  IC50 shift at 15 min: 0.9
UGT1A4
  IC50: > 100 µM
UGT1A6
  IC50: 94 µM
UGT1A9
  IC50: 65.2 µM
UGT1A3
  IC50: 84.1 µM
